Tested on: OPM2 cells
Assay: Inhibition of OPM2 proliferation (BrdU ELISA)
Format: cell-based
Conditions: Homo sapiens, OPM-2, 72 hours, read-out: Scoring: % inhibition of OPM2 proliferation
Experimental: Test compounds were dissolved in 100% DMSO to form stock solutions. Prior to screening, the stock solutions were diluted with complete media (RPMI 1640 containing 10% fetal calf serum, 2 mM L-glutamine and 50 U/mL each of penicillin and streptomycin) to form working assay solutions that contain 0.2% DMSO. The assay was initiated by adding 30,000 OPM2 cells (in 50 μL) to 50 μL of representative compounds at concentrations ranging from 0.03 to 30 μM. The cells were incubated for 72 hours in a humidified CO2 incubator with the addition of 10 μM BrdU for the final 6 hours according to the directions from the Roche BrdU Cell Proliferation ELISA kit used to detect proliferation (Roche, Cat. No. 11 647 229 001). OPM2 cells incubated in 0.1% DMSO in complete media were used as a negative control and the PI3Kα Inhibitor 2 (3-[4-(4-morpholinyl)thieno[3,2-d]pyrimidin-2-yl-phenol, Cayman Chemical, Cat. No. 10010177) was used as a positive control for inhibition of proliferation. At the end of the incubation, the plate containing the labeled cells was centrifuged, the supernatant removed and the cell pellets dried at 60° C. for 1 hour and stored at 4° C. until further analysis. Analysis of BrdU incorporation was done according to the manufacturer's instructions.

SMILES	inhibition at 30 µM [%]
CC1(C)CCC[C@]2(C)[C@H]3CS(=O)(=O)c4cc(OCC(=O)O)cc(OCC(=O)O)c4[C@]3(C)CC[C@@H]12 [compound 108, 2-{[(1R,10R,11S,16S)-3-(carboxymethoxy)-1,11,15,15-tetramethyl-8,8-dioxo-8^6-thiatetracyclo[8.8.0.0^2,7.0^11,16]octadeca-2,4,6-trien-5-yl]oxy}acetic acid]	< 25
COc1cc(OCC(=O)N2CCOCC2)cc2c1[C@]1(C)CC[C@H]3C(C)(C)CCC[C@]3(C)[C@H]1CS2(=O)=O [compound 110, (1R,10R,11S,16S)-3-methoxy-1,11,15,15-tetramethyl-5-[2-(morpholin-4-yl)-2-oxoethoxy]-8^6-thiatetracyclo[8.8.0.0^2,7.0^11,16]octadeca-2,4,6-triene-8,8-dione]	< 25

Molecular target: T1, His-hSHIP1 enzyme (Homo sapiens, UniProt Q92835)
T1 sequence (Q92835 1-1189): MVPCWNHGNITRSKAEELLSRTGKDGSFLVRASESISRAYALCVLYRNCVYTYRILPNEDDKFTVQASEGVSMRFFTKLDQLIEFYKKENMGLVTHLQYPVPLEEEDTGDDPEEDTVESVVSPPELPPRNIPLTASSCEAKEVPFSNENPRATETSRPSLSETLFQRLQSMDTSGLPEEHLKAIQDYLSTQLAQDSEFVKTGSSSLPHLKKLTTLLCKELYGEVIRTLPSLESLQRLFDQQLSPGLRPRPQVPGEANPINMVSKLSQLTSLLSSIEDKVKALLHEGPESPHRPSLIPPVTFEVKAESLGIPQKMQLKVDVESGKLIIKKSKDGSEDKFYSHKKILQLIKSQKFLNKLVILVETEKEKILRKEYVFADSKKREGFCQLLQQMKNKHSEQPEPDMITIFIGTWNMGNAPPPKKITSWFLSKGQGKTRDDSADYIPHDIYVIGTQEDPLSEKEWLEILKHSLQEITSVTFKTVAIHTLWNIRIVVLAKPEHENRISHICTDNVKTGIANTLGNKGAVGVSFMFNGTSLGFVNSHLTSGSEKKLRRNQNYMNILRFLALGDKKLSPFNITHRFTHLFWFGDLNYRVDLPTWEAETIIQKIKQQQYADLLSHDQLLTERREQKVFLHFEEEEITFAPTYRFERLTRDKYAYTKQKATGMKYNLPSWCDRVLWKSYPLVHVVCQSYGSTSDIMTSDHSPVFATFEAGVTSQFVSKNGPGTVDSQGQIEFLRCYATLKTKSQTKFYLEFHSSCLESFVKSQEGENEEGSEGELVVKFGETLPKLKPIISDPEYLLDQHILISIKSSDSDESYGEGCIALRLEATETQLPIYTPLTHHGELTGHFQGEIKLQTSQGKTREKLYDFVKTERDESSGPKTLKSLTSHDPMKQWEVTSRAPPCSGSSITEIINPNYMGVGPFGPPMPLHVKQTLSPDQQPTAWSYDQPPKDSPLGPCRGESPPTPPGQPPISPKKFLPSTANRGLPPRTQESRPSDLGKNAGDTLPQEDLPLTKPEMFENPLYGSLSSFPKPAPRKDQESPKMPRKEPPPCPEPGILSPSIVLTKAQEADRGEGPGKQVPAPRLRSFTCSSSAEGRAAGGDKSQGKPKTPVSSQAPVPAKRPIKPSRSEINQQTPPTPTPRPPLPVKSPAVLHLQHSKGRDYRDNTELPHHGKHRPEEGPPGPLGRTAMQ
Assay: His-hSHIP1 phosphatase activity assay (IP4 substrate, Biomol Green)
Format: biochemical
Conditions: percentage increase relative to background; concentrations ≦300 μM
Experimental: Test compounds were dissolved in 95% ethanol to form stock solutions. Before screening, the stock solutions were diluted with Phosphatase Assay Buffer (20 mM Tris-HCL, 10 mM MgCl2 pH 7.5, 0.02% Tween 20) to form working assay solutions that contained 10% ethanol. The assay was carried out on 96-well microtiter plates using a modified procedure of that reported by Ong et al., Blood 110, 1942-1949, 2007 and Yang et al., Org Lett 7, 1073-1076, 2005, both of which references are incorporated herein by reference in their entirety.
Each reaction contained 5 μL of His-hSHIP1 enzyme (15-20 ng), 10 μL of the substrate, 1,3,4,5-inositol tetrakisphosphate (IP4; 50 μM final), 5 μL of Phosphatase Assay Buffer, and 5 μL of test compound at various concentrations in 10% ethanol (0-300 μM final). Control blanks were also prepared by replacing His-hSHIP1 enzyme, IP4, or test compounds with Phosphatase Assay Buffer. After adding the reaction components in a 96-well microtiter plate on ice, the reaction was mixed by briefly shaking the plate vigorously. The reaction was then incubated at 37° C. for 15 min with gentle shaking followed by addition of 100 μL of Biomol Green Reagent (BIOMOL, PA, USA) to terminate the reaction. The free phosphate released from IP4 by His-hSHIP1 bound to the Biomol Green Reagent, turning the solution green in colour. After incubating the mixture for 20 min at room temperature for colour development, the absorbance was read with a SpectraMax Plus 96-well plate reader (Molecular Devices, Sunnyvale, Calif., USA) at a wavelength of 650 nm.
Percent (%) activation in Table 2 is expressed as a percentage increase relative to background. Scoring is expressed as follows: + (<50%); ++ (≧50% but <65%); +++ (≧65%).

Scoring: percent (%) activation of His-hSHIP1 enzyme	SMILES
++ (≧50% but <65%)	COc1cc(O)c2c(c1)SC[C@@H]1[C@@]3(C)CCCC(C)(C)[C@@H]3CC[C@@]21C [Compound No. 29, (1R,10R,11S,16S)-5-methoxy-1,11,15,15-tetramethyl-8-thiatetracyclo[8.8.0.0^2,7.0^11,16]octadeca-2,4,6-trien-3-ol]
+ (<50%)	CNC(=O)c1cc(C(=O)NC)c2c(c1)S(=O)(=O)C[C@@H]1[C@@]3(C)CCCC(C)(C)[C@@H]3CC[C@@]21C [compound 86, (1R,10R,11S,16S)-1,3-N,5-N,11,15,15-hexamethyl-8,8-dioxo-8λ^6-thiatetracyclo[8.8.0.0^2,7.0^11,16]octadeca-2,4,6-triene-3,5-dicarboxamide]
++ (≧50% but <65%)	COc1cc(O)c2c(c1)OC[C@@H]1[C@@]3(C)CCCC(C)(C)[C@@H]3CC[C@@]21C [Compound No. 39, (1R,10R,11S,16S)-5-methoxy-1,11,15,15-tetramethyl-8-oxatetracyclo[8.8.0.0^2,7.0^11,16]octadeca-2,4,6-trien-3-ol]
+ (<50%)	COc1cc(O)c(CN2CCOCC2)c2c1[C@]1(C)CC[C@H]3C(C)(C)CCC[C@]3(C)[C@H]1CS2(=O)=O [compound 106, (1R,10R,11S,16S)-5-hydroxy-3-methoxy-1,11,15,15-tetramethyl-6-(morpholin-4-ylmethyl)-8^6-thiatetracyclo[8.8.0.0^2,7.0^11,16]octadeca-2,4,6-triene-8,8-dione]
++ (≧50% but <65%)	COc1cc(O)cc2c1[C@]1(C)CC[C@H]3C(C)(C)CCC[C@]3(C)[C@H]1CS2 [Compound No. 25, (1R,10R,11S,16S)-3-methoxy-1,11,15,15-tetramethyl-8-thiatetracyclo[8.8.0.0^2,7.0^11,16]octadeca-2,4,6-trien-5-ol]
+ (<50%)	CC1(C)CCC[C@]2(C)[C@H]3CS(=O)(=O)c4cc(O)cc(C(=O)N5CCOCC5)c4[C@]3(C)CC[C@@H]12 [compound 88, (1R,10R,11S,16S)-5-hydroxy-1,11,15,15-tetramethyl-3-[(morpholin-4-yl)carbonyl]-8λ^6-thiatetracyclo-[8.8.0.0^2,7.0^11,16]octadeca-2,4,6-triene-8,8-dione]
+ (<50%)	CNC(=O)c1cc(O)cc2c1[C@]1(C)CC[C@H]3C(C)(C)CCC[C@]3(C)[C@H]1CS2(=O)=O [compound 66, (1R,10R,11S,16S)-5-hydroxy-N,1,11,15,15-pentamethyl-8,8-dioxo-8λ^6-thiatetracyclo[8.8.0.0^2,7.0^11,16]octadeca-2,4,6-triene-3-carboxamide]
+++ (≧65%)	Cc1cc(O)c2c(c1)S(=O)(=O)C[C@@H]1[C@@]3(C)CCCC(C)(C)[C@@H]3CC[C@@]21C [Compound No. 16, (1R,10R,11S,16S)-3-hydroxy-1,5,11,15,15-pentamethyl-8-thiatetracyclo[8.8.0.0^2,7.0^11,16]octadeca-2,4,6-triene-8,8-dione]
+ (<50%)	CC1(C)CCC[C@]2(C)[C@H]3CS(=O)(=O)c4cc(C(=O)NCC(=O)O)cc(O)c4[C@]3(C)CC[C@@H]12 [compound 93, 2-{[(1R,10R,11S,16S)-3-hydroxy-1,11,15,15-tetramethyl-8,8-dioxo-8λ^6-thiatetracyclo[8.8.0.0^2,7.0^11,16]octadeca-2,4,6-trien-5-yl]formamido}acetic acid]
+ (<50%)	CNC(=O)c1cc(O)cc2c1[C@]1(C)CC[C@H]3C(C)(C)CCC[C@]3(C)[C@H]1CS2 [compound 76, (1R,10R,11S,16S)-5-hydroxy-N,1,11,15,15-pentamethyl-8-thiatetracyclo-[8.8.0.0^2,7.0^11,16]octadeca-2,4,6-triene-3-carboxamide]
++ (≧50% but <65%)	CC1(C)CCC[C@]2(C)[C@H]3C[S+]([O-])c4cc(O)cc(O)c4[C@]3(C)CC[C@@H]12 (stereo partly drawn) [Compound No. 27, (1R,10R,11S,16S)-3,5-dihydroxy-1,11,15,15-tetramethyl-8-thiatetracyclo[8.8.0.0^2,7.0^11,16]octadeca-2,4,6-trien-8-one]
+ (<50%)	COC(=O)c1cc(C(=O)O)cc2c1[C@]1(C)CC[C@H]3C(C)(C)CCC[C@]3(C)[C@H]1CS2(=O)=O [compound 84, (1R,10R,11S,16S)-3-(methoxycarbonyl)-1,11,15,15-tetramethyl-8,8-dioxo-8λ^6-thiatetracyclo[8.8.0.0^2,7.0^11,16]octadeca-2,4,6-triene-5-carboxylic acid]
++ (≧50% but <65%)	COc1cc(C)c2c(c1)OC[C@@H]1[C@@]3(C)CCCC(C)(C)[C@@H]3CC[C@@]21C [Compound No. 5, (1R,10R,11S,16S)-5-methoxy-1,3,11,15,15-pentamethyl-8-oxatetracyclo[8.8.0.0^2,7.0^11,16]octadeca-2,4,6-triene]
+ (<50%)	CC1(C)CCC[C@]2(C)[C@H]3CS(=O)(=O)c4cc(O)cc(C#N)c4[C@]3(C)CC[C@@H]12 [compound 79, (1R,10R,11S,16S)-5-hydroxy-1,11,15,15-tetramethyl-8,8-dioxo-8λ^6-thiatetracyclo[8.8.0.0^2,7.0^11,16]octadeca-2,4,6-triene-3-carbonitrile]

Reference: patent US8101605B2, “SHIP1 modulators and methods related thereto” (Aquinox Pharmaceuticals Inc., priority 2009, dated 2012)
